Measurements taken from EP1650209A1, “Griseusin derivatives and their use as antitumor agents” (Oncotest GmbH, priority 2004, dated 2006).
≈ marks a conversion by molar mass, not a printed value.

How the values were obtained:
Assay in all cases: Proliferation inhibition of cancer cells (propidium iodide fluorescence)
Assay type in all cases: cell-based, human
[1] = tested on: LXFA 289L; settings: Lung, non small cell, LXFA 289L cell line
Procedure: (§1) Using various human cancer cells in vitro, the concentrations of the test compounds (A, B, C, D, E, F), which inhibit the proliferation of cancer cells by 50% (IC50) and 70% (IC70) were determined. Specifically, each cell line of bladder cancer (BXF 1218L and T-24), glioblastoma (CNXF 498NL), colic cancer (HCT-116 and HT-29), gastric cancer (GXF 251 L), head and neck cancer (HNXF 536L), non small cell lung cancer (LXF 1121L, LXF 289L, LXF 526L, LXF 529L, LXF 629L and H-460), mammary cancer (MAXF 401NL, MCF-7, MDA-231 and MDA-468), melanoma (MEXF 276L, MEXF 394NL, MEXF 462NL, MEXF 514L and MEXF 520L), ovary cancer (OVXF 1619L, OVXF 899L and OVCAR-3), pancreatic cancer (PAXF 1657L and PANC-1), prostate cancer (22Rv1, DU-145, LNCaP and PC3M), pleuramesothelioma (PXF 1752L), renal cancer (RXF 1781 L, RXF 393NL, RXF 486L and RXF 944L), and uterine cancer (UXF 1138L) is added to a 96-well microtiter plate at a density of 3.6-11.2x10^3 cells per well in RPMI-1640 medium containing 10% fetal calf serum and 0.1% gentamicin and incubated for 24 hours. After 24 hours RPMI-1640 medium containing 10% fetal calf serum and 0.1% gentamicin, together with a test compound, is added thereto. Then, this plate is incubated at 37°C for 4 days in a humidified atmosphere of air containing 5% CO2. Thereafter, the cell culture medium with or without drug was replaced by 200 µl of an aqueous PI solution (7 µg/ml propidium iodide). Applying a freeze thaw cycle to permeabilize intact cell walls, staining of DNA was achieved, and the fluorescence of each well was measured using the Cy-tofluor 4000 microplate reader (excitation 530 nm, emission 620 nm), giving a direct relationship to the total cell number. Proliferation inhibition is expressed as test versus untreated control (T/C-value [%]). IC50 and IC70 values were determined by plotting compound concentration versus cell viability.

[2] = tested on: MDA-231; settings: Breast, MDA-231 cell line
Procedure: as §1

[3] = tested on: PAXF 1657L; settings: Pancreas, PAXF 1657L cell line
Procedure: as §1

[4] = tested on: HT-29; settings: Colon, HT-29 cell line
Procedure: as §1

[5] = tested on: MCF-7; settings: Breast, MCF-7 cell line
Procedure: as §1

[6] = tested on: HNXF 536L; settings: Head and Neck, HNXF 536L cell line
Procedure: as §1

[7] = tested on: RXF 944L; settings: Kidney, RXF 944L cell line
Procedure: as §1

[8] = tested on: RXF 1781 L; settings: Kidney, RXF 1781 L cell line
Procedure: as §1

[9] = tested on: LXFL 529L; settings: LXFL 529L cell line
Procedure: as §1

[10] = tested on: MEXF 514L; settings: Melanoma, MEXF 514L cell line
Procedure: as §1

[11] = tested on: OVCAR-3; settings: Ovary, OVCAR-3 cell line
Procedure: as §1

[12] = tested on: PANC-1; settings: Pancreas, PANC-1 cell line
Procedure: as §1

[13] = tested on: PC3M; settings: Prostate, PC3M cell line
Procedure: as §1

[14] = tested on: LXFA 629L; settings: Lung, non small cell, LXFA 629L cell line
Procedure: as §1

[15] = tested on: MEXF 394NL; settings: Melanoma, MEXF 394NL cell line
Procedure: as §1

[16] = tested on: GXF 251 L
Procedure: as §1

[17] = tested on: 22Rv1; settings: Prostate, 22Rv1 cell line
Procedure: as §1

[18] = tested on: CNXF 498NL; settings: Glioblastoma, CNXF 498NL cell line
Procedure: as §1

[19] = tested on: LXFA 1121 L; settings: Lung, non small cell, LXFA 1121 L cell line
Procedure: as §1

[20] = tested on: HCT-116; settings: Colon, HCT-116 cell line
Procedure: as §1

[21] = tested on: OVXF 1619L; settings: Ovary, OVXF 1619L cell line
Procedure: as §1

[22] = tested on: RXF 393NL; settings: Kidney, RXF 393NL cell line
Procedure: as §1

[23] = tested on: MAXF 401NL; settings: MAXF 401NL cell line
Procedure: as §1

[24] = tested on: MDA-468; settings: Breast, MDA-468 cell line
Procedure: as §1

IC50 [1]: 8.770 µg/mL (≈ 21.9 µM)
IC50 [2]: 0.068 µg/mL (≈ 0.17 µM)
IC50 [3]: 0.094 µg/mL (≈ 0.235 µM)
IC50 [4]: 0.114 µg/mL (≈ 0.285 µM)
IC50 [5]: 0.138 µg/mL (≈ 0.345 µM)
IC50 [6]: 0.237 µg/mL (≈ 0.592 µM)
IC50 [7]: 0.038 µg/mL (≈ 0.0949 µM)
IC50 [8]: 0.407 µg/mL (≈ 1.02 µM)
IC50 value ([9]; 4 days): 1.068 µg/mL (≈ 2.67 µM)
IC50 ([9]; Lung, non small cell): 1.068 µg/mL (≈ 2.67 µM)
IC50 [10]: 0.087 µg/mL (≈ 0.217 µM)
IC50 [11]: 0.521 µg/mL (≈ 1.3 µM)
IC50 [12]: 0.117 µg/mL (≈ 0.292 µM)
IC50 [13]: 0.402 µg/mL (≈ 1 µM)
IC50 [14]: 0.234 µg/mL (≈ 0.585 µM)
IC50 [15]: 0.035 µg/mL (≈ 0.0874 µM)
IC50 value ([16]; GXF 251L cell line, 4 days): 0.106 µg/mL (≈ 0.265 µM)
IC50 ([16]; Stomach, GXF 251 L cell line): 0.106 µg/mL (≈ 0.265 µM)
IC50 [17]: 0.071 µg/mL (≈ 0.177 µM)
IC50 [18]: 0.107 µg/mL (≈ 0.267 µM)
IC50 [19]: 0.083 µg/mL (≈ 0.207 µM)
IC50 [20]: 0.697 µg/mL (≈ 1.74 µM)
IC50 [21]: 0.242 µg/mL (≈ 0.604 µM)
IC50 [22]: 0.104 µg/mL (≈ 0.26 µM)
IC50 ([23]; Breast): 0.090 µg/mL (≈ 0.225 µM)
IC50 value ([23]; 4 days): 0.09 µg/mL (≈ 0.225 µM)
IC50 [24]: 0.060 µg/mL (≈ 0.15 µM)
SMILES: C[C@@H]1CC(=O)[C@@H](O)[C@]2(O1)O[C@@H]1CC(=O)O[C@@H]1C1=C2C(=O)c2c(O)cccc2C1=O [Compound B, 4'-dehydro-deacetylgriseusin A]
IC70 [1]: 14.801 µg/mL (≈ 37 µM)
IC70 [2]: 0.136 µg/mL (≈ 0.34 µM)
IC70 [3]: 0.179 µg/mL (≈ 0.447 µM)
IC70 [4]: 0.177 µg/mL (≈ 0.442 µM)
IC70 [5]: 0.210 µg/mL (≈ 0.525 µM)
IC70 [6]: 0.716 µg/mL (≈ 1.79 µM)
IC70 [7]: 0.107 µg/mL (≈ 0.267 µM)
IC70 [8]: 1.134 µg/mL (≈ 2.83 µM)
IC70 ([9]; Lung, non small cell): 1.814 µg/mL (≈ 4.53 µM)
IC70 [10]: 0.149 µg/mL (≈ 0.372 µM)
IC70 [11]: 1.309 µg/mL (≈ 3.27 µM)
IC70 [12]: 0.200 µg/mL (≈ 0.5 µM)
IC70 [13]: 0.929 µg/mL (≈ 2.32 µM)
IC70 [14]: 0.671 µg/mL (≈ 1.68 µM)
IC70 [15]: 0.086 µg/mL (≈ 0.215 µM)
IC70 ([16]; Stomach, GXF 251 L cell line): 0.178 µg/mL (≈ 0.445 µM)
IC70 [17]: 0.139 µg/mL (≈ 0.347 µM)
IC70 [18]: 0.184 µg/mL (≈ 0.46 µM)
IC70 [19]: 0.147 µg/mL (≈ 0.367 µM)
IC70 [20]: 1.333 µg/mL (≈ 3.33 µM)
IC70 [21]: 0.916 µg/mL (≈ 2.29 µM)
IC70 [22]: 0.164 µg/mL (≈ 0.41 µM)
IC70 ([23]; Breast): 0.160 µg/mL (≈ 0.4 µM)
IC70 [24]: 0.127 µg/mL (≈ 0.317 µM)
